Laboratory results reported in patent US7012072B2, “Pharmaceutical oxaliplatinum preparation for parenteral administration and method for obtaining same” (Debiopharm S.A., priority 2000, dated 2006).

Tests used:
Type in all cases: physicochemical
[1] = Wet heat sterilization, three successive cycles at 80° C., observation after 72 hours at refrigerator temperature; conditions: 10 mg/ml, 3 cycles 80° C. ± 2, 30 min, 24 h standing at approx. 20° C.
Method: They were then subjected to operations of wet heat sterilization by carrying out three successive cycles of heating at a temperature of 80° C., followed by a return to an ambient temperature of approximately 20° C.
The solutions thus treated were kept, before observation, at refrigerator temperature for 72 hours.

[2] = Preparation of concentrated oxaliplatin solutions in solvent with hydroxylated derivative; conditions: solvent with sufficient amount of 1,2-propanediol, glycerol, maltitol, sucrose or inositol
Method: One of the co-solvents chosen from 1,2-propanediol, glycerol and maltitol, respectively, is introduced into the receptacle at the same time as or prior to the addition of water to make the volume up to 25 ml, according to the corresponding volume/volume or weight/volume ratios as indicated in the various tables.
After returning to ambient temperature, namely approximately 20° C., a clarifying filtration operation is optionally carried out in order to ensure clarity.

[3] = Wet heat treatment of oxaliplatin solutions in an autoclave, observation after return to ambient temperature; conditions: for Observation after storage (black precipitate): degassed with argon; for Observatios: appearance of solution: 24 hours after treatment
Source text: The mixtures as obtained by applying the method described in example 1, and according to the relative amounts indicated in table 1, […] well known to a specialist. […]

[4] = 10 mg/ml supersaturated, water for injectable preparation, 80° C. ± 2, 30 min

In the case of `O=C1[O][Pt]2([NH][C@@H]3CCCC[C@H]3[NH]2)[O]C1=O` [Oxaliplatin], the “Observations: appearance of solution” value ([1]; 1,2-propanediol/water for injectable preparation 50/50 (V/V)) is reported as “clear appearance”, the “Observations: appearance of solution” value ([1]; 85% glycerol/water for injectable preparation 50/50 (V/V)) is reported as “clear appearance” and the “Observations: appearance of solution” value ([1]; maltitol/water for injectable preparation 50% (m/V)) is reported as “clear appearance”. The “concentration of oxaliplatin obtained in the preparation” value [2] was “over 7 mg/ml”, the Observation after storage ([3]; 10 mg/ml supersaturated, water for injectable preparation, no co-solvent, 120° C. ± 2, 90 min) was “presence of black precipitate” and the “Observation after storage: appearance of solution” value [3, 4] was “solution has a clear appearance”. For the same molecule, the “Observation after storage: precipitate” value [3, 4] was “no presence of precipitate”, the “Observation after storage (black precipitate)” value ([3]; 10 mg/ml, 1,2-propanediol/water 20/20 (V/V), 110° C. ± 2, 120 min) was “presence of” and the “Observation after storage (black precipitate)” value ([3]; 10 mg/ml, 1,2-propanediol/water 20/20 (V/V), 120° C. ± 2, 150 min) was “presence of”. The “Observatios: appearance of solution” value ([3]; 10 mg/ml, 1,2-propanediol/water 50/50 (V/V), 70° C. ± 2, 30 min) was “clear”, the “Observation after storage (black precipitate)” value ([3]; 10 mg/ml, 85% glycerol/water 20/20 (V/V), 110° C. ± 2, 120 min) was “presence of” and the “Observation after storage (black precipitate)” value ([3]; 10 mg/ml, 85% glycerol/water 20/20 (V/V), 120° C. ± 2, 150 min) was “presence of”. For the same molecule, the “Observatios: appearance of solution” value ([3]; 10 mg/ml, 85% glycerol/water 50/50 (V/V), 70° C. ± 2, 30 min) was “clear”, the “Observation after storage (black precipitate)” value ([3]; 10 mg/ml, maltitol/water 50% (m/V), 110° C. ± 2, 120 min) was “presence of” and the “Observation after storage (black precipitate)” value ([3]; 10 mg/ml, maltitol/water 50% (m/V), 120° C. ± 2, 150 min) was “presence of”. The “Observatios: appearance of solution” value ([3]; 10 mg/ml, maltitol/water 50% (m/V), 70° C. ± 2, 30 min) was “clear” and the “Observatios: appearance of solution” value ([3]; 12 mg/ml, maltitol/water 30% (m/V), 80° C. ± 2, 30 min) was “clear”.
